Experimental data as given in patent US6797711B2, “Benzofuran derivatives and pharmaceutical compositions containing the same” (Pola Chemical Industries, Inc., priority 2000, dated 2004).

First: O=C(CC(c1ccccc1)c1ccccc1)N1CCN(C(=O)c2cc3ccccc3o2)CC1 [Compound 4, 1-(benzofuran-2-yl)carbonyl-4-(3,3-diphenylpropionyl)piperazine]
Second: O=C(CC(c1ccccc1)c1ccccc1)N1CCN(Cc2cc3ccccc3o2)CC1 [Compound 6, 1-(benzofuran-2-yl)methyl-4-(3,3-diphenylpropionyl)piperazine]
The melting point of the first is higher: 130.5 to 132 °C for the first, 120.5 to 122 °C for the second.

First: O=C(CC(c1ccccc1)c1ccccc1)N1CCN(CCc2cc3ccccc3o2)CC1 [Compound 7, 1-(2-(benzofuran-2-yl)ethyl)-4-(3,3-diphenylpropionyl)piperazine]
Second: O=C(CC(c1ccccc1)c1ccccc1)N1CCN(CC(O)c2cc3ccccc3o2)CC1 (centres unmarked) [Compound 3, 1-(2-(benzofuran-2-yl)-2-hydroxy)ethyl-4-(3,3-diphenylpropionyl)piperazine]
The melting point of the first is lower: 123.3 to 124.1 °C for the first, 125.5 to 127.5 °C for the second.

Work on `O=C(/C=C/c1ccccc1)N1CCN(CC(O)c2cc3ccccc3o2)CC1` (centres unmarked) [Compound 1, 1-(2-(benzofuran-2-yl)-2-hydroxy)ethyl-4-cinnamoylpiperazine] yielded a melting point of 126.5 to 128 °C.
